Structures can show the parent of a compound that is named as a salt.
Test system: NSCs
Settings: enriched in treated NSCs
Experimental: RNAs isolated from NSCs and neurons with and without drug treatments were hybridized to Illumina HumanRef-8 BeadChip (Illumina, Inc., San Diego, Calif., performed by Microarray core facility at the Burnham Institute for Medical Research). The Illumina array data were normalized by the quantile method, and then transformed log 2 ratio values for a zero mean for expression values of each gene across all samples. The statistical and bioinformatics analyses were conducted by using R and the bioconductor package (www.bioconductor.org). The gene set enrichment analysis was conducted using the GSEA software (www.broad.mit.edu/gsea).
The comparative results are then measured by a non-parametric, running sum statistic termed the enrichment score. The enrichment score significance is assessed by 1,000 permutation tests to compute the enrichment p-value.

Compound: CCCCc1oc2ccccc2c1C(=O)c1cc(I)c(OCCN(CC)CC)c(I)c1 [Amiodarone Hydrochloride]
- Nes: Endopeptidase Activity: 1.466
- Nes: Enzyme Binding: 0.9684
- Nes: Enzyme Inhibitor Activity: 1.362
- Nes: Enzyme Regulator Activity: 1.305
- Nes: Exonuclease Activity: 1.423
- Nes: Gated Channel Activity: 0.8726
- Nes: General Rna Polymerase Ii Transcription Factor Activity: 0.772
- Nes: Growth Factor Binding: 1.135
- Nes: Gtpase Activator Activity: 1.186
- Nes: Gtpase Binding: 0.9586
- Nes: Gtpase Regulator Activity: 1.412
- Nes: Guanyl Nucleotide Exchange Factor Activity: 1.287
- Nes: Hematopoietin Interferon Class D200 Domain Cytokine Receptor Activity: 0.7947
- Nes: Hormone Receptor Binding: 0.621
- Nes: Hydro Lyase Activity: 0.5564
- Nes: Hydrolase Activity Acting On Ester Bonds: 1.181
- Nes: Hydrolase Activity Acting On Glycosyl Bonds: 1.049
- Nes: Hydrolase Activity Hydrolyzing O Glycosyl Compounds: 1.219
- Nes: Inorganic Cation Transmembrane Transporter Activity: 0.6802
- Nes: Ion Channel Activity: 1.255
- Nes: Ion Transmembrane Transporter Activity: 1.185
- Nes: Isomerase Activity: 1.154
- Nes: Kinase Binding: 0.6301
- Nes: Ligase Activity: 0.4673
- Nes: Ligase Activity Forming Carbon Nitrogen Bonds: 0.6937
- Nes: Lyase Activity: 1.018
- Nes: Metal Ion Transmembrane Transporter Activity: 1.036
- Nes: Methyltransferase Activity: 0.9044
- Nes: Molecular Adaptor Activity: 1.189
- Nes: Monovalent Inorganic Cation Transmembrane Transporter Activity: 0.7857
- Nes: Motor Activity: 1.105
- Nes: Mrna Binding: 1.006
- Nes: Nuclease Activity: 0.9393
- Nes: Nucleotide Binding: 0.8932
- Nes: Oxidoreductase Activity: 0.9865
- Nes: Oxidoreductase Activity Acting On Ch Oh Group Of Donors: 0.8656
- Nes: Oxidoreductase Activity Go 0016705: 1.545
- Nes: Peptidase Activity: 1.4
- Nes: Phosphatase Regulator Activity: 0.456
- Nes: Phosphoprotein Phosphatase Activity: 1.51
- Nes: Phosphoric Diester Hydrolase Activity: 1.244
- Nes: Phosphoric Ester Hydrolase Activity: 1.31
- Nes: Phosphoric Monoester Hydrolase Activity: 1.31
- Nes: Protease Inhibitor Activity: 1.558
- Nes: Protein C Terminus Binding: 0.6675
- Nes: Protein Complex Binding: 1.312
- Nes: Protein Domain Specific Binding: 0.8643
- Nes: Protein Kinase Activity: 0.8772
- Nes: Protein Kinase Binding: 0.7501
- Nes: Protein Serine Threonine Kinase Activity: 0.8269
- Nes: Protein Serine Threonine Phosphatase Activity: 0.4942
- Nes: Protein Tyrosine Kinase Activity: 0.7818
- Nes: Protein Tyrosine Phosphatase Activity: 1.461
- Nes: Purine Nucleotide Binding: 0.8873
- Nes: Purine Ribonucleotide Binding: 0.9034
- Nes: Ras Gtpase Activator Activity: 0.9812
- Nes: Receptor Signaling Protein Activity: 0.7803
- Nes: Rho Gtpase Activator Activity: 0.9664
- Nes: Ribonuclease Activity: 0.4876
- Nes: Rna Splicing Factor Activity Transesterification Mechanism: 0.9542
- Nes: S Adenosylmethionine Dependent Methyltransferase Activity: 0.9978
- Nes: Secondary Active Transmembrane Transporter Activity: 1.221
- Nes: Sequence Specific Dna Binding: 0.8244
- Nes: Serine Hydrolase Activity: 1.672
- Nes: Serine Type Peptidase Activity: 1.65
- Nes: Sh3 Sh2 Adaptor Activity: 1.235
- Nes: Single Stranded Dna Binding: 0.9015
- Nes: Small Conjugating Protein Ligase Activity: 0.717
- Nes: Small Gtpase Binding: 0.9179
- Nes: Small Gtpase Regulator Activity: 1.109
- Nes: Small Protein Conjugating Enzyme Activity: 0.7314
- Nes: Specific Rna Polymerase Ii Transcription Factor Activity: 1.539
- Nes: Structural Constituent Of Cytoskeleton: 1.041
- Nes: Structural Constituent Of Muscle: 1.106
- Nes: Structural Molecule Activity: 0.7432
- Nes: Structure Specific Dna Binding: 0.7614
- Nes: Substrate Specific Channel Activity: 1.3
- Nes: Substrate Specific Transmembrane Transporter Activity: 1.04
- Nes: Substrate Specific Transporter Activity: 0.9263
- Nes: Transcription Activator Activity: 0.7812
- Nes: Transcription Coactivator Activity: 0.5439
- Nes: Transcription Cofactor Activity: 1.217
- Nes: Transcription Corepressor Activity: 1.692
- Nes: Transcription Factor Activity: 1.217
- Nes: Transcription Factor Binding: 1.248
- Nes: Transcription Repressor Activity: 1.653
- Nes: Transferase Activity Transferring Alkyl Or Aryl Other Than Methyl Groups: 0.6606
- Nes: Transferase Activity Transferring Glycosyl Groups: 0.6701
- Nes: Transferase Activity Transferring Groups Other Than Amino Acyl Groups: 0.6753
- Nes: Transferase Activity Transferring One Carbon Groups: 0.7951
- Nes: Transferase Activity Transferring Sulfur Containing Groups: 0.8435
- Nes: Transition Metal Ion Binding: 1.037
- Nes: Translation Factor Activity Nucleic Acid Binding: 0.81
- Nes: Translation Initiation Factor Activity: 0.4449
- Nes: Translation Regulator Activity: 0.9216
- Nes: Transmembrane Receptor Protein Kinase Activity: 0.7564
- Nes: Transmembrane Receptor Protein Tyrosine Kinase Activity: 0.9533
- Nes: Transmembrane Transporter Activity: 1.011
- Nes: Ubiquitin Protein Ligase Activity: 0.7536
- Nes: Zinc Ion Binding: 0.9797

— patent US20120244567A1, “HUMAN EMBRYONIC STEM CELLS FOR HIGH THROUGHOUT DRUG SCREENING” (BUCK INSTITUTE FOR RESEARCH ON AGING, priority 2009, published 2012)
